Measurements from patent publication US8124637B2, “Anthra [1, 2-d]imidazole-6,11-dione derivatives, preparation method and application thereof” (National Defense Medical Center, priority 2010, dated 2012).

What was measured:
[1] = target: T1, telomerase (total cell lysates of lung cancer cell line H1299) (Homo sapiens, UniProt O14746); assay: Telomere repeat amplification protocol (TRAP) assay; type: biochemical; conditions: preliminary screening at 10 μM, gel
T1 construct: As a source of telomerase, the total cell lysates derived from lung cancer cell line H1299 cells were used; endogenous in cells; host or cells: H1299 lung cancer cells (total cell lysate)
Description: Telomerase activity was detected by a modified version of the general TRAP protocol. Telomerase products were resolved by 10% polyacrylamide gel electrophoresis and visualized by staining with SYBER Green. As a source of telomerase, the total cell lysates derived from lung cancer cell line H1299 cells were used. Protein concentration of the lysates was assayed using Bio-Rad protein assay kit using BSA standards.
In the FIGS. 3A, 3B and FIG. 4, a positive control group (P) used water that had been sterilized three times in the assay; while a negative control group (N) used RNase A (CLONTECH) (5 μL, 0.1 mg/mL) in the assay.
In the positive control group (P), due to the absence of inhibitor, the telomerase could extend the telomere, such that some longer telomere fragments could be observed; while there was not observed in the negative control group (N). In the result of TRAP assay (FIG. 3A to 3B), compounds with a concentration of 10 μM was used as the preliminary screening. In the gel, standard compound A was 1,2-diaminoanthraquinone, D was doxorubicin, and M was mitoxantrone.

[2] = in vitro; conditions: human, Relative MTT viability (%)
Description: Further, cells were subjected to MTT assay to compare the relative toxicity or effect of each compound on cell proliferation and activity.
The above-described cells are cultured in a 96-well plate, to which was added with 25 μl MTT solution, and cultured in a 37° C. carbon dioxide incubator for 4 hours. Then, 100 μl Lysis buffer is added and incubated in a 37° C. carbon dioxide incubator overnight. An ELISA reader (Bio-Rad Model 450) is used to read optical density (O.D.) at 550 nm.
After being subjected to different compound treatments for 72 hours, cells were treated with a fixed amount of MTT solution for 28 hours. Then, DMSO was used to dissolve back formazan, an O. D. value was detected at wavelength in the range of 550/670 nm, and calculated accordingly the cell survival rate (as shown in Table 1).

[3] = system: K562; assay: NCI 60-cell drug screen, one dose; type: cell-based, human; conditions: Leukemia K562, 1.00E−5 Molar
[4] = system: UACC-257; assay: NCI 60-cell drug screen, one dose; type: cell-based, human; conditions: Melanoma UACC-257, 1.00E−5 Molar
[5] = system: CAKI-1; assay: NCI 60-cell drug screen, one dose; type: cell-based, human; conditions: Renal Cancer CAKI-1, 1.00E−5 Molar
[6] = system: RXF 393; assay: NCI 60-cell drug screen, one dose; type: cell-based, human; conditions: Renal Cancer RXF 393, 1.00E−5 Molar

T1 sequence (O14746 whole entry): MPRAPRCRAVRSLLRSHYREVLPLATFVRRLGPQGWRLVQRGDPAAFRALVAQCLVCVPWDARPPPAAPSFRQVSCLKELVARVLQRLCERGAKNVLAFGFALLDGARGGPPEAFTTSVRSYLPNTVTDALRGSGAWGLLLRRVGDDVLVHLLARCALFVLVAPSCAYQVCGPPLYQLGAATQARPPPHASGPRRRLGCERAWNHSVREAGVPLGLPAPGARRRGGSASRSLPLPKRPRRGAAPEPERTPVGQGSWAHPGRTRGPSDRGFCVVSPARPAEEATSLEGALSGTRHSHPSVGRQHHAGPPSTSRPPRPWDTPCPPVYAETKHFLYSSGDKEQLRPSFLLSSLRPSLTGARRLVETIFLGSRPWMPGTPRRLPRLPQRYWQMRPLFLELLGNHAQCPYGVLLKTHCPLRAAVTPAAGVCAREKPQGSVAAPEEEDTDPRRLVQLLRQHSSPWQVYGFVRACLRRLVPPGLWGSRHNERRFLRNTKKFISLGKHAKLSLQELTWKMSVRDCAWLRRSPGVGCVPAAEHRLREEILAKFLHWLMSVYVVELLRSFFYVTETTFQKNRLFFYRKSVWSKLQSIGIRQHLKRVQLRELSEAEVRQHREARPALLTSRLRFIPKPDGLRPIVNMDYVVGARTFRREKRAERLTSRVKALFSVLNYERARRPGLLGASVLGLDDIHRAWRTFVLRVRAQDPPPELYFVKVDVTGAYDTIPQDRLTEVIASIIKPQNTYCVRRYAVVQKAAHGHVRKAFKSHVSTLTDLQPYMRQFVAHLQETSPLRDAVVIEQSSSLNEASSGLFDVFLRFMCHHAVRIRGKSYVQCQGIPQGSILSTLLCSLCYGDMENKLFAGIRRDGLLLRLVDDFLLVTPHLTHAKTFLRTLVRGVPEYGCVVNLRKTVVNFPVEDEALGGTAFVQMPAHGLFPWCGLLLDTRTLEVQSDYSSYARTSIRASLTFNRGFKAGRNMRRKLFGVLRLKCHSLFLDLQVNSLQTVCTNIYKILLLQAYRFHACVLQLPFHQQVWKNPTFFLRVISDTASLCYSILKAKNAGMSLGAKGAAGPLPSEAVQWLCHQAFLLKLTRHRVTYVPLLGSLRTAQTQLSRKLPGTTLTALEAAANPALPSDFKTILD
T1 sequence (O60832 whole entry partner): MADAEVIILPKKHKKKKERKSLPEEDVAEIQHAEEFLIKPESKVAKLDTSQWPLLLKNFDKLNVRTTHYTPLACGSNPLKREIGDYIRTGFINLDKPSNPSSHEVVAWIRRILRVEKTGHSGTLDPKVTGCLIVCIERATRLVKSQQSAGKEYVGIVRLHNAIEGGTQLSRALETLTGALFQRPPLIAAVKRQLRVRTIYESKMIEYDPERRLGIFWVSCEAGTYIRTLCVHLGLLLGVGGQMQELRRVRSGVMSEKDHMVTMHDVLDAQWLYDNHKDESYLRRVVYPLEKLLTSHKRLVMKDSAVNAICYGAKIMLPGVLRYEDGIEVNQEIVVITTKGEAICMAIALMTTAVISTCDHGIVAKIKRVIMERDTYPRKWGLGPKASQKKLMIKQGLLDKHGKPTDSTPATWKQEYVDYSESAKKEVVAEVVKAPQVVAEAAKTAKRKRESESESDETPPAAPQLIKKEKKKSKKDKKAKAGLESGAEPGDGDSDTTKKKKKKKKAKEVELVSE
T1 sequence (Q9NX24 whole entry partner): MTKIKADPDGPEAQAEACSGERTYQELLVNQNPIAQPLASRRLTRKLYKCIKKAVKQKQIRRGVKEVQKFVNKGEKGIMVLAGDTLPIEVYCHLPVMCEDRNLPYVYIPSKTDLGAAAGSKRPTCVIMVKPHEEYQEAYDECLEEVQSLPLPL
T1 sequence (Q9NPE3 whole entry partner): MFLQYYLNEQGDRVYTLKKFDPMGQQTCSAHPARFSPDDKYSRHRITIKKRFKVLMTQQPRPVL
T1 sequence (Q9NY12 whole entry partner): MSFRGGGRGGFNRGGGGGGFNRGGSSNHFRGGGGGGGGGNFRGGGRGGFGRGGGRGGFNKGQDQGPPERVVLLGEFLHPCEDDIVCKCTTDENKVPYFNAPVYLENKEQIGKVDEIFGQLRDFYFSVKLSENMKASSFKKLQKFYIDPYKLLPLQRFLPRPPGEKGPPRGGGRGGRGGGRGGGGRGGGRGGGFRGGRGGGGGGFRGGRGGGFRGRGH

SMILES: CN1CCN(Cc2nc3ccc4c(c3[nH]2)C(=O)c2ccccc2C4=O)CC1 [CL24, 2-((4-methylpiperazin-1-yl)methyl)-1H-anthra[1,2-d]imidazole-6,11-dione]
- inhibition effect/activity of telomerase (TRAP) [1]: more significant inhibition effect/activity of telomerase

SMILES: O=C1c2ccccc2C(=O)c2c1ccc1nc(CN3CCN(c4ccccc4)CC3)[nH]c21 [CL27, 2-((4-phenylpiperazin-1-yl)methyl)-1H-anthra[1,2-d]imidazole-6,11-dione]
- viability at 72 h, 1 µM [2]: 90.2 ± 3.86%
- viability at 72 h, 10 µM [2]: 54.4%
- viability at 72 h, 100 µM [2]: 18.1%

SMILES: O=C1c2ccccc2C(=O)c2c1ccc1nc(CN3CCN(c4ccccn4)CC3)[nH]c21 [CL28, 2-((4-(pyridin-2-yl)piperazin-1-yl)methyl)-1H-anthra[1,2-d]imidazole-6,11-dione]
- Growth Percent [3]: 83.48%
- Growth Percent [4]: 88.91%
- Growth Percent [5]: 68.83%
- Growth Percent [6]: 89.67%
